Test results as given in PubChem BioAssay AID624485 (The Scripps Research Institute Molecular Screening Center, 2012).
Where “and” joins values, the source holds several entries; their conditions need not be identical. Identical values can stand only once. Calls of active or inactive are those of the source.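 Rule for the calls: active = over 50% inhibition of probe labelling of the prolyl oligopeptidase-like enzyme in cells; inactive = inhibition at or below 50%.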

Molecular target: Prolyl endopeptidase-like (Mus musculus) (UniProt Q8C167)
Assay: PREPL inhibition in intact cells, cell-based, click chemistry ABPP, gel, fluorescence (AID 624485)
Conditions: Neuro-2A transfected mPrepl, in situ gel CC-ABPP; at 50 µM; active compounds read high

Prolyl endopeptidase-like (Mus musculus), sequence (Q8C167 whole entry, looked up): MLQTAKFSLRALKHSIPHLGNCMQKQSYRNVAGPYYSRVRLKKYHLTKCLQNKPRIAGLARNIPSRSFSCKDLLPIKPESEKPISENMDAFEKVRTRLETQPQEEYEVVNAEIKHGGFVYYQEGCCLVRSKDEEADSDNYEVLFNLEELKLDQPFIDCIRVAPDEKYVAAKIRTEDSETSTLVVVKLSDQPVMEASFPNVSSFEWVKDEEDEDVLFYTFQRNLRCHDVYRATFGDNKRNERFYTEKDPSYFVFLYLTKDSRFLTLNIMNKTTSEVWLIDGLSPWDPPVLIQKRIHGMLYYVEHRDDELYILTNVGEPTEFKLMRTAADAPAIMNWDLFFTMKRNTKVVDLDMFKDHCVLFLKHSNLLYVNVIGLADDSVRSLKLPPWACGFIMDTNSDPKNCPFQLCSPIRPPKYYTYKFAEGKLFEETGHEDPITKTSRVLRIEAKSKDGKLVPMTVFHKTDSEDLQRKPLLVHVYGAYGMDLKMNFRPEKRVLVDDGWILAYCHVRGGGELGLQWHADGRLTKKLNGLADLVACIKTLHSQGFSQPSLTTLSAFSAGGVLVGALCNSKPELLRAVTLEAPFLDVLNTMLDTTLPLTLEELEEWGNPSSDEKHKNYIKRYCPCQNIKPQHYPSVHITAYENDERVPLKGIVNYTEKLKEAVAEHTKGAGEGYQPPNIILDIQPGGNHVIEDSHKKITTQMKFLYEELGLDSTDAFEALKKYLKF

| SMILES | inhibition |
| --- | --- |
| O=C(Nc1ccc2c(c1)OCCO2)c1cccc2nc3ccccc3nc12 | -26% (inactive) |
| N#Cc1c2c(c(-c3ccccc3)[nH]c1=O)CCCC2 | 60% |
| CC(C)Cc1[nH]c(=O)c(C#N)c2c1CCC2 | 90% |
| CCOc1ccc(CCNC(=O)c2ccc3c(=O)[nH]c4c(C(=O)NC(C)C)sc(=S)n4c3c2)cc1 | -29% (inactive) and 0% (inactive) |
